Test results from paper PMC9574927 (Journal of Medicinal Chemistry, 2022).

How the values were obtained:
SARS-CoV-2 M^pro = SARS-CoV-2 M^pro (Severe acute respiratory syndrome coronavirus 2, UniProt P0DTD1); type: biochemical
[1] = mouse
in vivo = conditions: male, CD-1, mouse, po, 100 mg/kg

| Structure (SMILES) | activity against Mpro in words (SARS-CoV-2 M^pro) | lung tissue Cmax ([1]; 25 mg/kg inhalative) | time of first appearance in plasma and urine post administration ([1]; 25 mg/kg inhalative) [min] | BALF concentrations at 5 h post administration (in words) ([1]; 100 mg/kg peroral, DOPS LUV formulation) | time up to which found in plasma and lung tissue ([1]; single inhalative dose 25 mg/kg) | CL/F (in vivo) [mL/min/kg] |
| --- | --- | --- | --- | --- | --- | --- |
| CC(C)(C)OC(=O)Nc1cccn([C@H](CC2CC2)C(=O)N[C@@H](C[C@@H]2CCNC2=O)C(=O)C(=O)NCc2ccccc2)c1=O [Compound 13b-H, tert-Butyl (1-((R)-1-(((S)-4-(Benzylamino)-3,4-dioxo-1-((S)-2-oxopyrrolidin-3-yl)butan-2-yl)amino)-3-cyclopropyl-1-oxopropan-2-yl)-2-oxo-1,2-dihydropyridin-3-yl)carbamate] | nearly inactive |  |  |  |  |  |
| CC(C)(C)OC(=O)Nc1cccn([C@@H](CC2CC2)C(=O)N[C@@H](C[C@@H]2CCNC2=O)C(=O)C(=O)NCc2ccccc2)c1=O [Compound 13b-K, tert-Butyl (1-((S)-1-(((S)-4-(Benzylamino)-3,4-dioxo-1-((S)-2-oxopyrrolidin-3-yl)butan-2-yl)amino)-3-cyclopropyl-1-oxopropan-2-yl)-2-oxo-1,2-dihydropyridin-3-yl)carbamate] |  | 261,748 ± 1294.4 ng/g | ≤ 15 | in the same range as after inhalative administration of 25 mg/kg | up to 24 h | 1160 |
